Laboratory results: ChEMBL document CHEMBL3390848, “Affinity selection and sequence-activity relationships of HIV-1 membrane fusion inhibitors directed at the drug-resistant variants” (Medchemcomm, 2010)
Residues, ends and D or L forms follow the SMILES beside them.

Columns and labels:
[1] = test system: Human immunodeficiency virus 1; assay: Binding affinity to HIV1 His-tagged N-terminal heptad repeat of envelope glycoprotein gp41 assessed as recovery of N54-drug complex after 2 hrs by LC-MS analysis; parameters: concentration or dose not given beside the values
[2] = test system: Human immunodeficiency virus 1; assay: Thermal stability of HIV1 envelope glycoprotein gp41 His-tagged N-terminal heptad repeat N54-drug complex assessed as thermal unfolding transition state by measuring molar ellipticity at 4 to 90 degC by circular dichroic spectra analysis
[3] = test system: Human immunodeficiency virus 1; assay: Antiviral activity against HIV1 NL4-3 harboring gp41 D36G mutant infected in human HeLa cells expressing CD4-LTR-beta-gal assessed as inhibition of viral replication after 48 hrs by MAGI assay; format: functional, organism-based

Compound | Activity [1] | Tm [2] | EC50 [3]
CC[C@H](C)[C@H](NC(=O)[C@H](CC(C)C)NC(=O)[C@H](CCC(=O)O)NC(=O)[C@H](CCC(=O)O)NC(=O)[C@@H](NC(=O)[C@H](CC(C)C)NC(=O)[C@H](CO)NC(=O)[C@@H](NC(=O)[C@H](Cc1ccc(O)cc1)NC(C)=O)[C@@H](C)O)[C@@H](C)CC)C(=O)N[C@@H](CCCCN)C(=O)N[C@@H](CCCCN)C(=O)N[C@@H](CO)C(=O)N[C@@H](CCC(=O)O)C(=O)N[C@@H](CCC(=O)O)C(=O)N[C@@H](CC(=O)O)C(=O)N[C@@H](CCC(N)=O)C(=O)N[C@@H](CCCCN)C(=O)N[C@@H](CCCCN)C(=O)N[C@@H](CC(N)=O)C(=O)N[C@@H](CCC(=O)O)C(=O)N[C@@H](CCC(=O)O)C(=O)N[C@@H](CCC(=O)O)C(=O)N[C@@H](CC(C)C)C(=O)N[C@@H](CCCCN)C(=O)N[C@@H](CCCCN)C(=O)N[C@@H](CC(C)C)C(=O)N[C@@H](CCC(=O)O)C(=O)N[C@@H](CCC(=O)O)C(=O)N[C@@H](Cc1c[nH]c2ccccc12)C(=O)N[C@@H](C)C(=O)N[C@@H](CCCCN)C(=O)N[C@@H](CCCCN)C(=O)N[C@@H](Cc1c[nH]c2ccccc12)C(=O)N[C@@H](CC(N)=O)C(=O)N[C@@H](Cc1c[nH]c2ccccc12)C(=O)N[C@@H](Cc1ccccc1)C(N)=O (Ac-YTSLIEELIKKSEEDQKKNEEELKKLEEWAKKWNWF-NH2) | 8.2% | 71.4 °C | 3.5 nM
CC[C@H](C)[C@H](NC(=O)[C@H](CC(C)C)NC(=O)[C@H](CCC(=O)O)NC(=O)[C@H](CCC(=O)O)NC(=O)[C@@H](NC(=O)[C@H](CC(C)C)NC(=O)[C@H](CO)NC(=O)[C@@H](NC(=O)[C@H](Cc1ccc(O)cc1)NC(C)=O)[C@@H](C)O)[C@@H](C)CC)C(=O)N[C@@H](CCCCN)C(=O)N[C@@H](CCCCN)C(=O)N[C@@H](CO)C(=O)N[C@@H](CCC(=O)O)C(=O)N[C@@H](CCC(=O)O)C(=O)N[C@H](C(=O)N[C@@H](CCC(N)=O)C(=O)N[C@@H](CCCCN)C(=O)N[C@@H](CCCCN)C(=O)N[C@@H](CC(N)=O)C(=O)N[C@@H](CCC(=O)O)C(=O)N[C@@H](CCC(=O)O)C(=O)N[C@@H](CCC(=O)O)C(=O)N[C@@H](CC(C)C)C(=O)N[C@@H](CCCCN)C(=O)N[C@@H](CCCCN)C(=O)N[C@@H](CC(C)C)C(=O)N[C@@H](CCC(=O)O)C(=O)N[C@@H](CCC(=O)O)C(=O)N[C@@H](Cc1c[nH]c2ccccc12)C(=O)N[C@@H](C)C(=O)N[C@@H](CCCCN)C(=O)N[C@@H](CCCCN)C(=O)N[C@@H](Cc1c[nH]c2ccccc12)C(=O)N[C@@H](CC(N)=O)C(=O)N[C@@H](Cc1c[nH]c2ccccc12)C(=O)N[C@@H](Cc1ccccc1)C(N)=O)[C@@H](C)O (Ac-YTSLIEELIKKSEETQKKNEEELKKLEEWAKKWNWF-NH2) | 6.9% | 71.6 °C | 2.1 nM
CC[C@H](C)[C@H](NC(=O)[C@H](CC(C)C)NC(=O)[C@H](CCC(=O)O)NC(=O)[C@H](CCC(=O)O)NC(=O)[C@@H](NC(=O)[C@H](CC(C)C)NC(=O)[C@H](CO)NC(=O)[C@@H](NC(=O)[C@H](Cc1ccc(O)cc1)NC(C)=O)[C@@H](C)O)[C@@H](C)CC)C(=O)N[C@@H](CCCCN)C(=O)N[C@@H](CCCCN)C(=O)N[C@@H](Cc1ccccc1)C(=O)N[C@@H](CCC(=O)O)C(=O)N[C@@H](CCC(=O)O)C(=O)N[C@@H](CCC(N)=O)C(=O)N[C@@H](CCC(N)=O)C(=O)N[C@@H](CCCCN)C(=O)N[C@@H](CCCCN)C(=O)N[C@@H](CC(N)=O)C(=O)N[C@@H](CCC(=O)O)C(=O)N[C@@H](CCC(=O)O)C(=O)N[C@@H](CCC(=O)O)C(=O)N[C@@H](CC(C)C)C(=O)N[C@@H](CCCCN)C(=O)N[C@@H](CCCCN)C(=O)N[C@@H](CC(C)C)C(=O)N[C@@H](CCC(=O)O)C(=O)N[C@@H](CCC(=O)O)C(=O)N[C@@H](Cc1c[nH]c2ccccc12)C(=O)N[C@@H](C)C(=O)N[C@@H](CCCCN)C(=O)N[C@@H](CCCCN)C(=O)N[C@@H](Cc1c[nH]c2ccccc12)C(=O)N[C@@H](CC(N)=O)C(=O)N[C@@H](Cc1c[nH]c2ccccc12)C(=O)N[C@@H](Cc1ccccc1)C(N)=O (Ac-YTSLIEELIKKFEEQQKKNEEELKKLEEWAKKWNWF-NH2) | 5.8% | 64.6 °C | 2.8 nM
CC[C@H](C)[C@H](NC(=O)[C@H](CC(C)C)NC(=O)[C@H](CCC(=O)O)NC(=O)[C@H](CCC(=O)O)NC(=O)[C@@H](NC(=O)[C@H](CC(C)C)NC(=O)[C@H](CO)NC(=O)[C@@H](NC(=O)[C@H](Cc1ccc(O)cc1)NC(C)=O)[C@@H](C)O)[C@@H](C)CC)C(=O)N[C@@H](CCCCN)C(=O)N[C@@H](CCCCN)C(=O)N[C@@H](CO)C(=O)N[C@@H](CCC(=O)O)C(=O)N[C@@H](CCC(=O)O)C(=O)NCC(=O)N[C@@H](CCC(N)=O)C(=O)N[C@@H](CCCCN)C(=O)N[C@@H](CCCCN)C(=O)N[C@@H](CC(N)=O)C(=O)N[C@@H](CCC(=O)O)C(=O)N[C@@H](CCC(=O)O)C(=O)N[C@@H](CCC(=O)O)C(=O)N[C@@H](CC(C)C)C(=O)N[C@@H](CCCCN)C(=O)N[C@@H](CCCCN)C(=O)N[C@@H](CC(C)C)C(=O)N[C@@H](CCC(=O)O)C(=O)N[C@@H](CCC(=O)O)C(=O)N[C@@H](Cc1c[nH]c2ccccc12)C(=O)N[C@@H](C)C(=O)N[C@@H](CCCCN)C(=O)N[C@@H](CCCCN)C(=O)N[C@@H](Cc1c[nH]c2ccccc12)C(=O)N[C@@H](CC(N)=O)C(=O)N[C@@H](Cc1c[nH]c2ccccc12)C(=O)N[C@@H](Cc1ccccc1)C(N)=O (Ac-YTSLIEELIKKSEEGQKKNEEELKKLEEWAKKWNWF-NH2) | 3.4% | 66.2 °C | 3 nM
CC[C@H](C)[C@H](NC(=O)[C@H](CC(C)C)NC(=O)[C@H](CCC(=O)O)NC(=O)[C@H](CCC(=O)O)NC(=O)[C@@H](NC(=O)[C@H](CC(C)C)NC(=O)[C@H](CO)NC(=O)[C@@H](NC(=O)[C@H](Cc1ccc(O)cc1)NC(C)=O)[C@@H](C)O)[C@@H](C)CC)C(=O)N[C@@H](CCCCN)C(=O)N[C@@H](CCCCN)C(=O)N[C@@H](CO)C(=O)N[C@@H](CCC(=O)O)C(=O)N[C@@H](CCC(=O)O)C(=O)N[C@@H](CCC(=O)O)C(=O)N[C@@H](CCC(N)=O)C(=O)N[C@@H](CCCCN)C(=O)N[C@@H](CCCCN)C(=O)N[C@@H](CC(N)=O)C(=O)N[C@@H](CCC(=O)O)C(=O)N[C@@H](CCC(=O)O)C(=O)N[C@@H](CCC(=O)O)C(=O)N[C@@H](CC(C)C)C(=O)N[C@@H](CCCCN)C(=O)N[C@@H](CCCCN)C(=O)N[C@@H](CC(C)C)C(=O)N[C@@H](CCC(=O)O)C(=O)N[C@@H](CCC(=O)O)C(=O)N[C@@H](Cc1c[nH]c2ccccc12)C(=O)N[C@@H](C)C(=O)N[C@@H](CCCCN)C(=O)N[C@@H](CCCCN)C(=O)N[C@@H](Cc1c[nH]c2ccccc12)C(=O)N[C@@H](CC(N)=O)C(=O)N[C@@H](Cc1c[nH]c2ccccc12)C(=O)N[C@@H](Cc1ccccc1)C(N)=O (Ac-YTSLIEELIKKSEEEQKKNEEELKKLEEWAKKWNWF-NH2) | 8.2% | 71.8 °C | 3.8 nM
CC[C@H](C)[C@H](NC(=O)[C@H](CC(C)C)NC(=O)[C@H](CCC(=O)O)NC(=O)[C@H](CCC(=O)O)NC(=O)[C@@H](NC(=O)[C@H](CC(C)C)NC(=O)[C@H](CO)NC(=O)[C@@H](NC(=O)[C@H](Cc1ccc(O)cc1)NC(C)=O)[C@@H](C)O)[C@@H](C)CC)C(=O)N[C@@H](CCCCN)C(=O)N[C@@H](CCCCN)C(=O)N[C@@H](CCC(N)=O)C(=O)N[C@@H](CCC(=O)O)C(=O)N[C@@H](CCC(=O)O)C(=O)N[C@@H](CCC(N)=O)C(=O)N[C@@H](CCC(N)=O)C(=O)N[C@@H](CCCCN)C(=O)N[C@@H](CCCCN)C(=O)N[C@@H](CC(N)=O)C(=O)N[C@@H](CCC(=O)O)C(=O)N[C@@H](CCC(=O)O)C(=O)N[C@@H](CCC(=O)O)C(=O)N[C@@H](CC(C)C)C(=O)N[C@@H](CCCCN)C(=O)N[C@@H](CCCCN)C(=O)N[C@@H](CC(C)C)C(=O)N[C@@H](CCC(=O)O)C(=O)N[C@@H](CCC(=O)O)C(=O)N[C@@H](Cc1c[nH]c2ccccc12)C(=O)N[C@@H](C)C(=O)N[C@@H](CCCCN)C(=O)N[C@@H](CCCCN)C(=O)N[C@@H](Cc1c[nH]c2ccccc12)C(=O)N[C@@H](CC(N)=O)C(=O)N[C@@H](Cc1c[nH]c2ccccc12)C(=O)N[C@@H](Cc1ccccc1)C(N)=O (Ac-YTSLIEELIKKQEEQQKKNEEELKKLEEWAKKWNWF-NH2) | 2.2% | 60 °C | 7.9 nM
CC[C@H](C)[C@H](NC(=O)[C@H](CC(C)C)NC(=O)[C@H](CCC(=O)O)NC(=O)[C@H](CCC(=O)O)NC(=O)[C@@H](NC(=O)[C@H](CC(C)C)NC(=O)[C@H](CO)NC(=O)[C@@H](NC(=O)[C@H](Cc1ccc(O)cc1)NC(C)=O)[C@@H](C)O)[C@@H](C)CC)C(=O)N[C@@H](CCCCN)C(=O)N[C@@H](CCCCN)C(=O)N[C@@H](CO)C(=O)N[C@@H](CCC(=O)O)C(=O)N[C@@H](CCC(=O)O)C(=O)N[C@@H](Cc1ccccc1)C(=O)N[C@@H](CCC(N)=O)C(=O)N[C@@H](CCCCN)C(=O)N[C@@H](CCCCN)C(=O)N[C@@H](CC(N)=O)C(=O)N[C@@H](CCC(=O)O)C(=O)N[C@@H](CCC(=O)O)C(=O)N[C@@H](CCC(=O)O)C(=O)N[C@@H](CC(C)C)C(=O)N[C@@H](CCCCN)C(=O)N[C@@H](CCCCN)C(=O)N[C@@H](CC(C)C)C(=O)N[C@@H](CCC(=O)O)C(=O)N[C@@H](CCC(=O)O)C(=O)N[C@@H](Cc1c[nH]c2ccccc12)C(=O)N[C@@H](C)C(=O)N[C@@H](CCCCN)C(=O)N[C@@H](CCCCN)C(=O)N[C@@H](Cc1c[nH]c2ccccc12)C(=O)N[C@@H](CC(N)=O)C(=O)N[C@@H](Cc1c[nH]c2ccccc12)C(=O)N[C@@H](Cc1ccccc1)C(N)=O (Ac-YTSLIEELIKKSEEFQKKNEEELKKLEEWAKKWNWF-NH2) | 5.3% | 64 °C | 2.6 nM
